# Measurements: patent publication US9833497B2, “Human originated EGF domain proteins and use of the same” (CHENGDU SOURCEBIO LIMITED-LIABILITY COMPANY, priority 2013, dated 2017)
# Tests used:
# Type in all cases: cell-based
# E. coli DH5α = assay: Antibacterial activity: MIC and growth curve against E. coli DH5α in 96-well plate; conditions: minimal inhibitory concentration against E. coli DH5α; 96-well plate, 5×10^5 CFU/mL, 37° C., judged after 8 h
# Outline: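 Log-phase bacteria (OD600 ~0.5) resuspended in LB at 5×10^5 CFU/mL, exposed to recombinant protein at 50, 25, 12.5 μg/mL final in triplicate, 37 °C shaking at 175 rpm. OD600 read every 30 min; MIC is lowest concentration showing no growth.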
# Serratia marcescens = assay: MIC against Gram-negative bacteria: Serratia marcescens; conditions: for MIC: S. marcescens, 10 h cultivation at 37° C.
# Outline: (§1)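 Two-fold serial dilutions of each purified human EGF domain protein, three replicate wells per level, were combined with bacteria at a final 5×10^5 CFU/mL in LB. Cultures were shaken at 175 rpm, 37° C. The MIC was taken as the minimum concentration preventing growth.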
# Aeromonas hydrophila = assay: MIC against Gram-negative bacteria: Aeromonas hydrophila; conditions: for MIC: A. hydrophila, 10 h cultivation at 37° C.
# Outline: as §1
# Pseudomonas aeruginosa = assay: MIC against Gram-negative bacteria: Pseudomonas aeruginosa; conditions: for MIC: P. aeruginosa, 10 h cultivation at 37° C.
# Outline: as §1
# Proteus mirabilis = assay: MIC against Gram-negative bacteria: Proteus mirabilis; conditions: for MIC: P. mirabilis, 10 h cultivation at 37° C.
# Outline: as §1
# Enterobacter cloacae = assay: MIC against Gram-negative bacteria: Enterobacter cloacae; conditions: for MIC: E. cloacae, 10 h cultivation at 37° C.
# Outline: as §1
# Citrobacter diversus = assay: MIC against Gram-negative bacteria: Citrobacter diversus; conditions: for MIC: C. diversus, 10 h cultivation at 37° C.
# Outline: as §1
# Moraxella catarrhalis = assay: MIC against Gram-negative bacteria: Moraxella catarrhalis; conditions: for MIC: M. catarrhalis, 10 h cultivation at 37° C.
# Outline: as §1
# Proteus vulgaris = assay: MIC against Gram-negative bacteria: Proteus vulgaris; conditions: for MIC: P. vulgaris, 10 h cultivation at 37° C.
# Outline: as §1
# E. coli BL21 = assay: MIC against Gram-negative bacteria: E. coli BL21; conditions: for MIC: 10 h cultivation at 37° C.
# Outline: as §1
# Klebsiella pneumonia = assay: MIC against Gram-negative bacteria: Klebsiella pneumonia; conditions: for MIC: K. pneumonia, 10 h cultivation at 37° C.
# Outline: as §1
# [1] = 96-well plate, 5×10^5 CFU/mL, 37° C., 10 h
# [2] = Serratia marcescens, 96-well plate, 5×10^5 CFU/mL, 37° C., 10 h
# [3] = Aeromonas hydrophila, 96-well plate, 5×10^5 CFU/mL, 37° C., 10 h
# [4] = Pseudomonas aeruginosa, 96-well plate, 5×10^5 CFU/mL, 37° C., 10 h
# [5] = Proteus mirabilis, 96-well plate, 5×10^5 CFU/mL, 37° C., 10 h
# [6] = Enterobacter cloacae, 96-well plate, 5×10^5 CFU/mL, 37° C., 10 h
# [7] = Citrobacter diversus, 96-well plate, 5×10^5 CFU/mL, 37° C., 10 h
# [8] = Moraxella catarrhalis, 96-well plate, 5×10^5 CFU/mL, 37° C., 10 h
# [9] = Proteus vulgaris, 96-well plate, 5×10^5 CFU/mL, 37° C., 10 h
# [10] = E. coli BL21, 96-well plate, 5×10^5 CFU/mL, 37° C., 10 h
# [11] = Klebsiella pneumonia, 96-well plate, 5×10^5 CFU/mL, 37° C., 10 h
substance,measurement,setting,value
PRT302 (DIDECVEEPEICALGTCSNTEGSFKCLCPEGFSLSSSGRRCQ; listed as Homo sapiens),MIC,E. coli DH5α,12.5 µg/mL
same,MIC,Serratia marcescens; 5×10^5 CFU/mL,12.5 µg/mL
same,MIC,Aeromonas hydrophila; 5×10^5 CFU/mL,12.5 µg/mL
same,MIC,Pseudomonas aeruginosa; 5×10^5 CFU/mL,12.5 µg/mL
same,MIC,Proteus mirabilis; 5×10^5 CFU/mL,12.5 µg/mL
same,MIC,Enterobacter cloacae; 5×10^5 CFU/mL,12.5 µg/mL
same,MIC,Citrobacter diversus; 5×10^5 CFU/mL,12.5 µg/mL
same,MIC,Moraxella catarrhalis; 5×10^5 CFU/mL,12.5 µg/mL
same,MIC,Proteus vulgaris; 5×10^5 CFU/mL,50 µg/mL
same,MIC,"E. coli BL21; E. coli BL21, 5×10^5 CFU/mL",25 µg/mL
same,MIC,Klebsiella pneumonia; 5×10^5 CFU/mL,25 µg/mL
PRT563 (CVCNYLGTVQEHCNGSDCQCDKATGQCLCLPNVIGQNCDRCAPNTWQLASGTGCDP; listed as Homo sapiens),MIC,E. coli DH5α,25 µg/mL
same,MIC against S. marcescens,Serratia marcescens; [1],25 µg/mL
same,MIC against A. hydrophila,Aeromonas hydrophila; [1],12.5 µg/mL
same,MIC against P. aeruginosa,Pseudomonas aeruginosa; [1],25 µg/mL
same,MIC against P. mirabilis,Proteus mirabilis; [1],25 µg/mL
same,MIC against E. cloacae,Enterobacter cloacae; [1],25 µg/mL
same,MIC against C. diversus,Citrobacter diversus; [1],25 µg/mL
same,MIC against M. catarrhalis,Moraxella catarrhalis; [1],50 µg/mL
same,MIC against P. vulgaris,Proteus vulgaris; [1],12.5 µg/mL
same,MIC against E. coli BL21,E. coli BL21; [1],12.5 µg/mL
same,MIC against K. pneumonia,Klebsiella pneumonia; [1],50 µg/mL
PRT1004 (LRPSCADSPCRNRATCQDSPQGPRCLCPTGYTGGSCQ; listed as Homo sapiens),MIC,E. coli DH5α,50 µg/mL
same,MIC,Serratia marcescens,12.5 µg/mL
same,MIC,Aeromonas hydrophila,25 µg/mL
same,MIC,Pseudomonas aeruginosa,50 µg/mL
same,MIC,Proteus mirabilis,50 µg/mL
same,MIC,Enterobacter cloacae,50 µg/mL
same,MIC,Citrobacter diversus,12.5 µg/mL
same,MIC,Moraxella catarrhalis,25 µg/mL
same,MIC,Proteus vulgaris,25 µg/mL
same,MIC,E. coli BL21; E. coli BL21,100 µg/mL
same,MIC,Klebsiella pneumonia,12.5 µg/mL
PRT1249 (NQCACNSSPCEQQSGRCQCRERTFGARCD; listed as Homo sapiens),MIC,E. coli DH5α,12.5 µg/mL
same,MIC against S. marcescens,Serratia marcescens; [2],25 µg/mL
same,MIC against A. hydrophila,Aeromonas hydrophila; [3],12.5 µg/mL
same,MIC against P. aeruginosa,Pseudomonas aeruginosa; [4],50 µg/mL
same,MIC against P. mirabilis,Proteus mirabilis; [5],25 µg/mL
same,MIC against E. cloacae,Enterobacter cloacae; [6],50 µg/mL
same,MIC against C. diversus,Citrobacter diversus; [7],50 µg/mL
same,MIC against M. catarrhalis,Moraxella catarrhalis; [8],12.5 µg/mL
same,MIC against P. vulgaris,Proteus vulgaris; [9],50 µg/mL
same,MIC against E. coli BL21,E. coli BL21; [10],12.5 µg/mL
same,MIC against K. pneumonia,Klebsiella pneumonia; [11],12.5 µg/mL
PRT712 (GSNSCQLNNGGCSQLCLPTSETTRTCMCTVGYYLQKNRMSCQ; listed as Homo sapiens),MIC,E. coli DH5α,25 µg/mL
same,MIC S. marcescens,Serratia marcescens; [1],12.5 µg/mL
same,MIC A. hydrophila,Aeromonas hydrophila; [1],25 µg/mL
same,MIC P. aeruginosa,Pseudomonas aeruginosa; [1],50 µg/mL
same,MIC P. mirabilis,Proteus mirabilis; [1],50 µg/mL
same,MIC E. cloacae,Enterobacter cloacae; [1],50 µg/mL
same,MIC C. diversus,Citrobacter diversus; [1],12.5 µg/mL
same,MIC M. catarrhalis,Moraxella catarrhalis; [1],25 µg/mL
same,MIC P. vulgaris,Proteus vulgaris; [1],25 µg/mL
same,MIC E. coli BL21,E. coli BL21; [1],12.5 µg/mL
same,MIC K. pneumonia,Klebsiella pneumonia; [1],25 µg/mL
PRT94 (DVNECNAHPCFPRVRCINTSPGFRCEACPPGYSGPTHQGVGLAFAKANKQVCT; listed as Homo sapiens),MIC,E. coli DH5α,12.5 µg/mL
same,MIC (μg/mL) S. marcescens,Serratia marcescens; [2],50 µg/mL
same,MIC (μg/mL) A. hydrophila,Aeromonas hydrophila; [3],12.5 µg/mL
same,MIC (μg/mL) P. aeruginosa,Pseudomonas aeruginosa; [4],12.5 µg/mL
same,MIC (μg/mL) P. mirabilis,Proteus mirabilis; [5],12.5 µg/mL
same,MIC (μg/mL) E. cloacae,Enterobacter cloacae; [6],50 µg/mL
same,MIC (μg/mL) C. diversus,Citrobacter diversus; [7],50 µg/mL
same,MIC (μg/mL) M. catarrhalis,Moraxella catarrhalis; [8],25 µg/mL
same,MIC (μg/mL) P. vulgaris,Proteus vulgaris; [9],25 µg/mL
same,MIC (μg/mL) E. coli BL21,E. coli BL21; [10],12.5 µg/mL
same,MIC (μg/mL) K. pneumonia,Klebsiella pneumonia; [11],12.5 µg/mL
